{"source": "patent US6713098B2", "about": "“Phytochemotherapy for cancer” (priority 2001, dated 2004)", "tested_on": "MCF-7 cells", "assay": "Cell growth inhibition by [3H]thymidine incorporation, PRPC fractions and PRPC/IEC/RPC sub-fractions", "format": "cell-based, human", "method": "(§1) Sub-confluent cells were serum-starved overnight and then were left untreated, i.e., no serum (−), were treated with serum (+) or with isolated V. amygdalina fractions 8, 9, 10, 14, 15, 16, 17, 18, 19, or 20 for 18 hours. Following incubation, all cells were pulsed with 1 μCi/ml [^3H]thymidine for an additional 4-6 hours as described in Example 2. The results represent the mean ±SD of three independent experiments. *P<0.05; **P<0.01.\nas §1, with “100 μg/ml of” for “isolated”, “fractions” for “fractions 8, 9, 10, 14,”\nSub-confluent cells were serum-starved overnight and then were left untreated, i.e., no serum (−), were treated with serum (+) or with 100 ng/ml of V. amygdalina fractions 19-5-16, 19-5-17, or 19-5-13 for 18 hours. […]\nFraction 19 of the PRPC separation described in Example 3 was subjected to IEC fractionation as described in Example 4 to produce 10 IEC sub-fractions designated IEC sub-fractions 19-1 to 19-10. […] Finally, Two RPC sub-fractions, specifically 19-5-16 and 19-5-17, were further analyzed and shown to be pure peptides. […]", "data": [{"substance": "19-5-16 (DTKDVVNVTG)", "values": [{"measurement": "inhibition of cell DNA synthesis", "setting": "100 nanograms/ml, MCF-7, FIG. 5", "result": 4, "unit": "fold"}, {"measurement": "potency in growth inhibition assay (in words)", "setting": "RPC sub-fractions of 19-5, assay as in Example 6", "result": "exceptionally high potency"}]}]}
